Experimental data: patent publication US10709707B2, “Methods of treating ocular conditions” (Oyster Point Pharma, Inc., priority 2016, dated 2020)

Tests used:
[1] = 7-day pilot intranasal toxicity and toxicokinetic study in rats; details: for AUC(0-t): AUC0-t
Method: The study design was as follows:
The following parameters and end points were evaluated in this study; clinical signs, body weights, body weight gain, food consumption, ophthalmology, toxicokinetic parameters, gross necropsy findings, organ weights, and histopathologic examination of select tissues, including nasal cavity at levels I-IV and detailed ocular histopathology for all dose groups: histopathology for brain, pharynx, larynx, trachea, lung, and select target tissues (i.e., adrenal gland, liver, and spleen) that were identified in a GLP 13-week oral toxicity study in rats (DSE 2004-0356) in group 1 and 4 animals, and gross lesions.

[2] = Single dose pharmacokinetics studies; format: in vivo; details: Swiss (mouse), Sprague-Dawley (rat), cynomolgus (monkey), plasma, oral, rat and monkey, read-out: time to reach maximum concentration (Tmax)
Method: In a monkey study, [^14C]-Compound 1 was given at 10 mg/kg orally or 5 mg/kg by iv infusion. Oral bioavailability in this study was about 30%.

[3] = target: T1, rat ganglion receptors α3β4 (Rattus norvegicus, UniProt P04757+P12392); experiment: Receptor function ganglionic receptors (rat), PC-12 cells; format: cell-based; details: for Emax: PC-12, Rat ganglion-type (a3b4*)
T1 construct: endogenous in cells; host or cells: PC-12 cells (per the earlier reading)

[4] = Female, Day 7, 3.6 mg/day (2%), intranasal TID
[5] = Female, Day 7, 10.8 mg/day (6%), intranasal TID
[6] = Male, Day 1, 0.9 mg/day (0.5%), intranasal TID
[7] = Male, Day 1, 3.6 mg/day (2%), intranasal TID
[8] = Male, Day 1, 10.8 mg/day (6%), intranasal TID
[9] = Male, Day 7, 0.9 mg/day (0.5%), intranasal TID
[10] = Male, Day 7, 3.6 mg/day (2%), intranasal TID
[11] = Male, Day 7, 10.8 mg/day (6%), intranasal TID
[12] = female, rat, plasma, inhaled or intranasal, 0.9 mg/day, Female, Day 1, 0.9 mg/day (0.5%), intranasal TID
[13] = female, rat, plasma, inhaled or intranasal, 0.9 mg/day, Female, Day 7, 0.9 mg/day (0.5%), intranasal TID
[14] = female, rat, plasma, inhaled or intranasal, 3.6 mg/day, Female, Day 1, 3.6 mg/day (2%), intranasal TID
[15] = female, rat, plasma, inhaled or intranasal, 3.6 mg/day, Female, Day 7, 3.6 mg/day (2%), intranasal TID
[16] = female, rat, plasma, inhaled or intranasal, 10.8 mg/day, Female, Day 1, 10.8 mg/day (6%), intranasal TID
[17] = female, rat, plasma, inhaled or intranasal, 10.8 mg/day, Female, Day 7, 10.8 mg/day (6%), intranasal TID
[18] = male, rat, plasma, inhaled or intranasal, 0.9 mg/day, Male, Day 1, 0.9 mg/day (0.5%), intranasal TID
[19] = male, rat, plasma, inhaled or intranasal, 0.9 mg/day, Male, Day 7, 0.9 mg/day (0.5%), intranasal TID
[20] = male, rat, plasma, inhaled or intranasal, 3.6 mg/day, Male, Day 1, 3.6 mg/day (2%), intranasal TID
[21] = male, rat, plasma, inhaled or intranasal, 3.6 mg/day, Male, Day 7, 3.6 mg/day (2%), intranasal TID
[22] = male, rat, plasma, inhaled or intranasal, 10.8 mg/day, Male, Day 1, 10.8 mg/day (6%), intranasal TID
[23] = male, rat, plasma, inhaled or intranasal, 10.8 mg/day, Male, Day 7, 10.8 mg/day (6%), intranasal TID

T1 sequence (P04757 26-499): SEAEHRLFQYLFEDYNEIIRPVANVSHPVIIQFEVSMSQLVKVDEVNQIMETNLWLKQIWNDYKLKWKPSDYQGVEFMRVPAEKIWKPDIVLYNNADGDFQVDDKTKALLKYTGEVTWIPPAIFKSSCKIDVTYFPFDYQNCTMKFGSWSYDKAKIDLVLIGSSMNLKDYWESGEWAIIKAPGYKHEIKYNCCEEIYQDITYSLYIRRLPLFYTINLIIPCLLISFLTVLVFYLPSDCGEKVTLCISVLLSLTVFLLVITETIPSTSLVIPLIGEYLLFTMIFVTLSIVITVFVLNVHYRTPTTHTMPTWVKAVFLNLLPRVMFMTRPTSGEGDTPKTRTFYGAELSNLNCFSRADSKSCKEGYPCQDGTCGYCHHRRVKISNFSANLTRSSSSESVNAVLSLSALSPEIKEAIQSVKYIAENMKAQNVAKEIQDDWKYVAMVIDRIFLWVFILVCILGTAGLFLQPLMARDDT
T1 sequence (P12392 21-495): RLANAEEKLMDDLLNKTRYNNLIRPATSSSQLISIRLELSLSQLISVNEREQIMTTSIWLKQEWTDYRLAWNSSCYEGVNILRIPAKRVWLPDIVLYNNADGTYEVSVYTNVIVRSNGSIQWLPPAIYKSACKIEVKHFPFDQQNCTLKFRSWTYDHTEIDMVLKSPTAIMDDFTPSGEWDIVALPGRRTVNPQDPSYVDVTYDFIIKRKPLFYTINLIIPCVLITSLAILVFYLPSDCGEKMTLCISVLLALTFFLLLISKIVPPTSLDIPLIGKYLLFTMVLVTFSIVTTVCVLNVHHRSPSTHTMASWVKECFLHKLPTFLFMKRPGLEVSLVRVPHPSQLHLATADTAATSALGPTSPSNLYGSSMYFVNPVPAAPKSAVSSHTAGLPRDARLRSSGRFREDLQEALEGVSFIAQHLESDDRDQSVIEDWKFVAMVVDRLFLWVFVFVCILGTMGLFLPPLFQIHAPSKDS

C(=C\[C@H]1CCNC1)/c1cncnc1 [Compound 1, (R)-5-((E)-2-pyrrolidin-3-ylvinyl)pyrimidine]
C1 (peak concentration following 1st instillation) [1, 4]: 68.0 ng/mL
C2 (peak concentration following 2nd instillation) [1, 4]: 79.9 ng/mL
C3 (peak concentration following 3rd instillation) [1, 4]: 76.0 ng/mL
DN AUC0-t (dose-normalized) [1, 4]: 93.5 (ng*h/mL)/(mg)
C1 (peak concentration following 1st instillation) [1, 5]: 218 ng/mL
C2 (peak concentration following 2nd instillation) [1, 5]: 224 ng/mL
C3 (peak concentration following 3rd instillation) [1, 5]: 210 ng/mL
DN AUC0-t (dose-normalized) [1, 5]: 137 (ng*h/mL)/(mg)
C1 (peak concentration following 1st instillation) [1, 6]: 51.9 ng/mL
C2 (peak concentration following 2nd instillation) [1, 6]: 36.3 ng/mL
C3 (peak concentration following 3rd instillation) [1, 6]: 54.2 ng/mL
C1 (peak concentration following 1st instillation) [1, 7]: 86.4 ng/mL
C2 (peak concentration following 2nd instillation) [1, 7]: 343 ng/mL
C3 (peak concentration following 3rd instillation) [1, 7]: 134 ng/mL
DN AUC0-t (dose-normalized) [1, 7]: 230 (ng*h/mL)/(mg)
C1 (peak concentration following 1st instillation) [1, 8]: 208 ng/mL
C2 (peak concentration following 2nd instillation) [1, 8]: 332 ng/mL
C3 (peak concentration following 3rd instillation) [1, 8]: 924 ng/mL
DN AUC0-t (dose-normalized) [1, 8]: 157 (ng*h/mL)/(mg)
C1 (peak concentration following 1st instillation) [1, 9]: 12.4 ng/mL
C2 (peak concentration following 2nd instillation) [1, 9]: 28.0 ng/mL
C3 (peak concentration following 3rd instillation) [1, 9]: 33.7 ng/mL
C1 (peak concentration following 1st instillation) [1, 10]: 110 ng/mL
C2 (peak concentration following 2nd instillation) [1, 10]: 53.8 ng/mL
C3 (peak concentration following 3rd instillation) [1, 10]: 25.5 ng/mL
DN AUC0-t (dose-normalized) [1, 10]: 82.7 (ng*h/mL)/(mg)
C1 (peak concentration following 1st instillation) [1, 11]: 166 ng/mL
C2 (peak concentration following 2nd instillation) [1, 11]: 209 ng/mL
C3 (peak concentration following 3rd instillation) [1, 11]: 225 ng/mL
DN AUC0-t (dose-normalized) [1, 11]: 81.3 (ng*h/mL)/(mg)
half-life ([1]; both, rat, plasma, inhaled or intranasal): 1.4 h
AUC(0-t) [1, 12]: 138 ng·h/mL
AUC(0-t) [1, 13]: 148 ng·h/mL
Cmax [1, 12]: 34.9 ng/mL
Cmax [1, 13]: 37.5 ng/mL
Tmax [1, 12]: 12.1 h
Tmax [1, 13]: 12.1 h
AUC(0-t) [1, 14]: 626 ng·h/mL
AUC(0-t) [1, 15]: 336 ng·h/mL
Cmax [1, 14]: 278 ng/mL
Cmax [1, 15]: 79.9 ng/mL
Tmax [1, 14]: 12.1 h
Tmax [1, 15]: 6.08 h
AUC(0-t) [1, 16]: 4170 ng·h/mL
AUC(0-t) [1, 17]: 1480 ng·h/mL
Cmax [1, 16]: 481 ng/mL
Cmax [1, 17]: 224 ng/mL
Tmax [1, 16]: 6.08 h
Tmax [1, 17]: 6.08 h
Cmax [1, 18]: 54.2 ng/mL
Cmax [1, 19]: 33.7 ng/mL
Tmax [1, 18]: 12.1 h
Tmax [1, 19]: 12.1 h
AUC(0-t) [1, 20]: 829 ng·h/mL
AUC(0-t) [1, 21]: 298 ng·h/mL
Cmax [1, 20]: 343 ng/mL
Cmax [1, 21]: 110 ng/mL
Tmax [1, 20]: 6.08 h
Tmax [1, 21]: 0.083 h
AUC(0-t) [1, 22]: 1700 ng·h/mL
AUC(0-t) [1, 23]: 878 ng·h/mL
Cmax [1, 22]: 924 ng/mL
Cmax [1, 23]: 225 ng/mL
Tmax [1, 22]: 12.1 h
Tmax [1, 23]: 12.1 h
time of peak systemic exposure after each instillation ([1]; rat, intranasal TID, post administration): 5 min
survival ([1]; rats, intranasal 0.5%, 2% and 6%, 3 times per day for 7 days): survival of all animals to scheduled euthanasia
no-observed-adverse-effect-level (NOAEL) ([1]; rats, intranasal 3 times per day for 7 days): 180 μL 6% Compound 1 per animal per day
Tmax [2]: 0.167 to 2.25 h
Emax ([3]; Ca++ Flux): 35%
Emax ([3]; Rb+ Flux, single point): 19%
Activity at rat ganglion receptors ([3]; PC-12 cells): receptors in PC-12 cells was low (19%).
EC50 ([3]; Rat ganglion-type (a3b4*), Ca++ Flux): 53 µM
